Source: patent US20070254837A1, “Treatment for Necrotizing Enterocolitis” (UNIVERSITY TECHNOLOGIES INTERNATIONAL INC., priority 2003, published 2007)
“Also recorded” adds a separate entry of the source.

Columns and labels:
lactase = experiment: Neonatal rat model of necrotizing enterocolitis: total lactase activity in distal ileal tissue; assay type: in vivo; details: compared to untreated NEC rats, FIG. 6
Method: These studies utilized a well-validated neonatal rat model of necrotizing enterocolitis (14). Briefly, neonatal Sprague-Dawley rats (Charles River Laboratories Inc., Wilmington, Mass.) were collected from their mothers immediately after birth, prior to suckling maternal milk. Animals were weighed and placed in infant incubators to control body temperature. Subsequently, rats were hand fed via the orogastric route 0.1 ml of rat milk substitute (RMS) consisting of prepared infant formula (Esbilac formula, Pet-Ag, New Hampshire, Ill.) plus or minus the therapeutic supplement every three hours. EGF (Austral Biologics, San Ramon, Calif.) was produced by genetically engineered yeast and purified by sequential chromatography and reverse phase high pressure liquid chromatography (HPLC) and determined to be >97% pure by N-terminal amino acid sequencing, amino acid composition, HPLC analysis and SDS gel electrophoresis. […]
Body weights and tail lengths were recorded daily, and twice daily urination and defecation was induced by gentle stimulation of the anogenital region and stool collected for future analysis. The small intestine was visually assessed for clinical signs of NEC such as intestinal hemorrhage and discoloration, and ileal distension and stenosis. […]
(§1) Data are expressed as means ±SE. […]

[1] = system: necrotizing enterocolitis; details: 152 infants, birthweight ≦1250 g, gestational age ≦32 weeks; dietary L-arginine supplementation; reduced from 27%; cited from earlier work
[2] = system: neonatal rat model of necrotizing enterocolitis; experiment: Neonatal rat model of necrotizing enterocolitis: clinical (macroscopic) assessment of small intestine on autopsy; assay type: in vivo; details: for discoloration (visual assessment of luminal blood) / stenosis: FIG. 3; for clinical scoring on autopsy (overall clinical appearance, pathology/damage scores): FIG. 2
Method: (§2) These studies utilized a well-validated neonatal rat model of necrotizing enterocolitis (14). Briefly, neonatal Sprague-Dawley rats (Charles River Laboratories Inc., Wilmington, Mass.) were collected from their mothers immediately after birth, prior to suckling maternal milk. Animals were weighed and placed in infant incubators to control body temperature. Subsequently, rats were hand fed via the orogastric route 0.1 ml of rat milk substitute (RMS) consisting of prepared infant formula (Esbilac formula, Pet-Ag, New Hampshire, Ill.) plus or minus the therapeutic supplement every three hours. EGF (Austral Biologics, San Ramon, Calif.) was produced by genetically engineered yeast and purified by sequential chromatography and reverse phase high pressure liquid chromatography (HPLC) and determined to be >97% pure by N-terminal amino acid sequencing, amino acid composition, HPLC analysis and SDS gel electrophoresis. Arginine (L-arginine hydrochloride, crystalline, ICN Biomedicals Inc, Aurora, Ohio) was produced by a proprietary synthetic process. EGF (100 ng/ml) and L-arginine (1.35-2.7 mg/ml) were admininstered based on daily feed intake to achieve a dose of 1.5 mmol/kg/day of L-arginine (in standardized units these doses work out to ˜20 ug EGF/kg/day and ˜316 mg L-arginine/kg/day, for a ratio of about 1:472 500 mole/mole). The EGF and L-arginine were gently vortexed and thoroughly mixed into the Esbilac infant formula. After 48 hrs of feeding, volumes were advanced slowly to 0.3 ml as tolerated. To induce clinical disease rats were stressed twice daily with asphyxia by breathing 100% nitrogen gas for 60 sec followed by cold stress at 4° C. for 10 min starting one hour after birth.
Six separate experimental groups were studied: unstressed rats artificially fed with EGF-free rat milk substitute (RMS) (Control, n=10); stressed rats that were dam-fed (Control (s), n=7); stressed rats artificially fed EGF-free RMS (NEC, n=10); stressed rats artificially fed RMS supplemented with 100 ng/ml recombinant human EGF (EGF-NEC, n=6); stressed rats artificially fed RMS supplemented with 1.5 mmol L-arginine/kg/day (ARG-NEC, n=6); and stressed rats artificially fed RMS supplemented with 100 ng/ml recombinant human EGF+1.5 mmol L-arginine/kg/day (EGF/ARG-NEC, n=8). Animals that developed abdominal distension, respiratory distress or lethargy during the 96-hour course of the experiment were terminated. After 96 hours all surviving animals were killed by decapitation and the small intestine removed for further analysis.
(§3) Body weights and tail lengths were recorded daily, and twice daily urination and defecation was induced by gentle stimulation of the anogenital region and stool collected for future analysis. The small intestine was visually assessed for clinical signs of NEC such as intestinal hemorrhage and discoloration, and ileal distension and stenosis. The small intestine was then divided into two halves and 2-3 cm of tissue from the distal segment (ileum) fixed, embedded in paraffin, and counterstained with hematoxylin and eosin for histological evaluation of NEC (14). Histology was evaluated in a blinded manner and graded as follows: normal (0) showing no damage; mild (+1) showing slight submucosal and/or lamina propria separation (+2); moderate (+2) displaying moderate separation of the submucosa and/or lamina propria, and/or edema in the submucosal and muscular layers; severe (+3) showing severe separation of submucosa and/or lamina propria, and/or severe edema in the submucosal and muscular layers, and regional villus sloughing; necrosis (+4) displaying loss of villi and necrosis (14). The length of the remaining ileum was measured and the tissue homogenized in 2.5 mM ethylenediaminetetraacetic acid (EDTA), snap frozen in liquid nitrogen, and stored at […] for later analysis of lactase activity (21) and ileal protein (5) and DNA (3 1) content.
as §1

[3] = system: neonatal rat model of necrotizing enterocolitis; experiment: Neonatal rat model of necrotizing enterocolitis: histological evaluation of distal ileal tissue; assay type: in vivo; details: for histological damage scores: distal ileal tissue, compared to NEC animals, FIG. 5; for appearance of ileal tissue sections (photomicrographs): distal ileum, hematoxylin and eosin, FIG. 4
Method: as §2, with “To induce clinical disease rats were stressed twice daily with asphyxia by breathing 100% nitrogen gas for 60 sec followed by cold stress at 4° C. for 10 min starting one hour after birth.” left out
as §3, with “The small intestine was then divided into two halves and 2-3 cm of tissue from the distal segment (ileum) fixed, embedded in paraffin, and counterstained with hematoxylin and eosin for histological evaluation of NEC (14).” left out
as §1

[4] = system: neonatal piglet model of NEC; details: infusion; cited from earlier work
[5] = system: necrotizing enterocolitis; details: cited from earlier work
[6] = stressed neonatal rats, RMS with EGF 100 ng/ml and/or L-arginine 1.5 mmol/kg/day, 96 h, compared to untreated (NEC) group

Compound | total lactase activity (lactase) | incidence of NEC [1] | discoloration (visual assessment of luminal blood) ([2]; compared to controls) | stenosis ([2]; compared to controls) | discoloration (visual assessment of luminal blood) ([2]; compared to untreated group) | discoloration (visual assessment of luminal blood) ([2]; compared to untreated group, listed as L-arginine) | clinical scoring on autopsy (overall clinical appearance, pathology/damage scores) [2, 6] | histological damage scores [3] | appearance of ileal tissue sections (photomicrographs) [3] | intestinal injury [4] | protective effect ([5]; EGF at 500 ng/ml) | clinical benefit ([5]; EGF at physiological concentration of 100 ng/ml) | clinical scoring on autopsy (overall clinical appearance, pathology/damage scores) ([2]; same treatment, compared to control animals)
N=C(N)NCCCC(N)C(=O)O (stereo not shown) [Arg, 2-amino-5-guanidinovaleric acid] | did not alter the deficit in lactase activity | 7% | significantly elevated | significant stenosis | significantly less discoloration than observed in the untreated group | decreased the appearance of blood in the lumen | did not differ | did not differ | Significant damage | markedly reduced intestinal injury | – | – | –
EGF: 53-amino acid protein, human EGF sequence SEQ ID NO: 1, produced by genetically engineered yeast (Austral Biologics) | did not alter the deficit in lactase activity | – | significantly elevated | significant stenosis | – | – | significantly less than that observed in the untreated (NEC) group; also recorded: some protection against physical damage to the intestine | did not differ | Significant damage | – | protective effect | no significant clinical benefit | still significantly increased over control animals
